Entries after “also recorded” stand apart in the source; their conditions may differ.
Tests used:
[1] = test system: RnpA-mediated mRNA turnover of spa mRNA; assay: Cellular mRNA turnover assay (spa mRNA, qRT-PCR after rifampin arrest); assay type: cell-based, Staphylococcus aureus; details: 0.5X MIC for 30 min, 0 and 5 min post-transcriptional arrest, Figure 3 left
Protocol: As a more direct measure of whether the antimicrobial effects were RnpA-dependent, studies were performed to measure their inhibition of cellular RnpA-mediated mRNA turnover of spa mRNA. The spa mRNA is a natural substrate of RnpA mRNA degradation, as previously described, and can be utilized for an intracellular readout of inhibition for RnpA-mediated mRNA turnover. To do so, S. aureus cells were treated with a sub-inhibitory concentration of compound (0.5X MIC) then challenged with the antibiotic rifampicin to arrest de novo RNA synthesis. Quantitative RT-PCR was used to measure the cellular titers of spa mRNA at 0 and 5 min post-transcriptional arrest.
S.aureus RNA half-life measurements were performed as described. […] To inhibit de novo RNA synthesis, rifampin (Alfa Aesar, Haverhill, MA, USA) was added to the culture at a final concentration of 200 µg mL^−1. Half of the culture was immediately removed and combined with an equal volume of ice-cold acetone:ethanol (1:1 v/v). The remainder of the culture was returned to the 37 °C incubator for an additional 5 min, then combined with an equal volume of ice-cold acetone:ethanol (1:1 v/v) and stored at −80 °C.
Cell suspensions in acetone:ethanol were thawed on ice and centrifuged at 1560× g for 10 min at 4 °C. Acetone:ethanol was decanted, and pellets were left to air-dry for 5 min. Cell pellets were resuspended in 500 µL ice-cold TE buffer (10 mM Tris-HCl, pH 8.0, 1mM EDTA) and transferred to FastPrep Lysing Matrix B tubes (MP Biomedicals, Santa Ana, CA). Mixtures were homogenized at 5 m∙s^−1 for 20 s, rested on ice for 5 min, then homogenized again at 4.5 m∙s^−1 for 20 s in a FastPrep-24 instrument. Cell lysates were centrifuged at 16,200× g for 15 min at 4 °C to remove cell debris. Total bacterial RNA and tRNA^Tyr populations were isolated from the supernatant using Qiagen RNeasy Mini kits and miRNeasy kits, respectively, following the manufacturer’s recommendations (Germantown, MD). For qRT-PCR, 2 µg of RNA substrate was treated with 2 units of DNase I (New England Biolabs, Ipswich, MA, USA) for 1 h at 37 °C and re-purified using Qiagen RNeasy Mini kits, following the manufacturer’s instructions. RNA was measured for concentration and quality using a NanoDrop spectrophotometer. Quantabio (Beverly, MA, USA) qScript cDNA Supermix was used to convert 200 ng of RNA into cDNA, following manufacturer’s instructions, which was subsequently amplified using Quantabio SYBR Green Fast Mix following manufacturer’s instructions. Fluorescence was read on the BioRad (Hercules, CA, USA) CFX 96 Connect Real Time Machine. Transcript levels were compared to the internal control 16S rRNA (ΔΔCt) and plotted as fold change compared to the control. The following primer pairs were used in this study for qRT-PCR: spa forward—[…]; spa reverse—[…]; –15 ptRNA^Tyr forward—[…]; tRNA^Tyr reverse—TGGTG GAGGGGGGCAGATTC; 16S rRNA forward—[…]; 16S rRNA reverse—[…].

RNase P (RnpA + rnpB) = biological target: T1, RNase P (RnpA + rnpB) (Staphylococcus aureus, UniProt P0A0H5); assay: In vitro ptRNA^Tyr processing assay with reconstituted RNase P; assay type: biochemical; details: for IC50: in vitro ptRNA^Tyr processing, average of at least two tests, read-out: ptRNA IC50
T1 construct: made in house; host or cells: E. coli BL21 (DE3)
T1 sequence (P0A0H5 1-117): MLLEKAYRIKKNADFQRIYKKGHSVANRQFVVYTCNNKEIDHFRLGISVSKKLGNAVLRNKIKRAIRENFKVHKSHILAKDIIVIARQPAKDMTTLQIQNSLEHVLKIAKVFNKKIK
Protocol: His-tagged RnpA was purified as previously described. E. coli BL21 (DE3) cells harboring plasmid pEXP5-nt containing a hexahistidine tag fused to the N-terminus of S.aureus RnpA coding region were grown in LB supplemented with 50 µg mL^−1 ampicillin to OD600 = 0.6 and induced with 1mM isopropyl β-D-1-thiogalactopyranoside (IPTG) for three hours to induce protein expression. […] Cells were mechanically lysed by three passes at 18,000 psi through a French Pressure Cell Press (SLM-Aminco; Pittsford, NY, USA) and cell debris was removed by centrifugation at 17,000× g for 10 min at 4 °C. Supernatants were collected, filtered through a 0.2 micron syringe filter, then loaded onto a 5 mL HisPur cobalt column (ThermoFisher Scientific, Waltham, MA, U.S.A.) using the BioRad Maximizer Duo-Flow Medium Pressure Chromatography System. Protein was eluted using an imidazole gradient (80 mM to 500 mM). Fractions were assessed for RnpA presence and purity via SDS-PAGE analysis, Coomassie staining and Western blotting using an anti-His antibody (Invitrogen; Grand Island, NY, USA).
rnpB and RNA substrates (spa, ptRNA^Tyr) for RnpA functional assays, as well as mature tRNA were synthesized in vitro, as previously described. Each gene was PCR amplified using S. aureus UAMS-1 chromosomal DNA as a template and the corresponding oligonucleotide primer pairs, in which the forward primers contained an RNA polymerase T7 promoter sequence. The following primer pairs were used in this study (T7 promoter underlined): T7-rnpB forward—[…] and rnpB reverse—[…]; T7-ptRNA^Tyr forward—[…] and ptRNA^Tyr reverse—TGGTGGAG GGGGGCAGATTC; T7-spa forward—[…] CGACGTCCAG and spa reverse—[…]. Resulting PCR products were analyzed on a 0.8% agarose gel and purified using the Qiagen QIAquick Gel Extraction kit, according to the manufacturer’s instructions. In vitro transcription was performed using the TranscriptAid T7 High Yield Transcription kit (Fermentas; Burlington, ON, Canada) following manufacturer’s instructions. Following in vitro transcription, the RNA was treated with DNase I for 90 min and re-purified using the Qiagen RNeasy Mini kit. RNA was quantified using a NanoDrop2000 spectrophotometer.
S.aureus Rnase P activity assays were performed as previously described. Briefly, ptRNA^Tyr and rnpB RNA was denatured by heating to 95 °C for 5 min then slow cooled to room temperature. RNA species were then combined with 2× low salt buffer (50 mM Tris-HCl pH 8.0, 5 mM MgCl2) and incubated for 5 min at 37 °C. Rnase P was reconstituted by mixing an equal molar ratio of His-RnpA and rnpB for 15 min at 37 °C. […] Then, 5 pmol ptRNA^Tyr was added to each reaction and incubated for an additional 30 min at 37 °C. Reactions were stopped with 2× RNA loading dye (Thermo Scientific) and heating to 65 °C for 10 min. Samples were electrophoresed on a 7M urea/8% polyacrylamide gel then stained with 0.5 µg mL^−1 ethidium bromide. The BioRad EZ Gel Doc imaging system was used to visualize the RNA and relative abundance of mature tRNA^Tyr in the DMSO control or in the samples containing compound and analyzed using BioRad Image Lab densitometry software. The percent inhibitory activity of each compound was calculated using the following equation: (% experimental processing/% processing negative control) × 100.

SMILES	Inhibition of cellular spa mRNA turnover (in words) [1]	Inhibition of in vitro RnpA ptRNA processing (in words) (RNase P (RnpA + rnpB))	Conversion of precursor tRNA to mature tRNA (RNase P (RnpA + rnpB); 0, 50, 250 or 500 µM, urea-PAGE, Figure 2B)	IC50 (RNase P (RnpA + rnpB))
O=C(Nc1ccc(C(F)(F)F)cc1)c1c(NC(=O)C(F)(F)F)sc2c1CCCCC2 [RNP0012]	moderate inhibitors; also recorded: significantly reduced RnpA-associated mRNA degradation	good inhibitory properties	reduced conversion of precursor tRNA to mature tRNA in a dose dependent manner	66 µM
O=C(Nc1cccc(C(F)(F)F)c1)c1c(NC(=O)C(F)(F)F)sc2c1CCCC2 [RNP0016]	strongest stabilizers of mRNA	good inhibitory properties	–	52 µM
O=C(Nc1cccc(F)c1)c1c(NC(=O)C(F)(F)F)sc2c1CCCCC2 [RNP0008]	weakest inhibitors	only inhibited the ptRNA processing function	–	78 µM
O=C(Nc1cccc(F)c1)c1c(NC(=O)C(F)(F)F)sc2c1CCCC2 [RNP0013]	–	–	–	95 µM
O=C(Nc1cccc(C(F)(F)F)c1)c1c(NC(=O)C(F)(F)F)sc2c1CCCCC2 [RNP0011]	moderate inhibitors	good inhibitory properties	–	57 µM
Cc1cccc(NC(=O)c2c(NC(=O)C(F)(F)F)sc3c2CCCCC3)c1 [RNP0010]	strong inhibitor	only inhibited the ptRNA processing function	–	70 µM
O=C(Nc1ccc(C(F)(F)F)cc1)c1c(NC(=O)C(F)(F)F)sc2c1CCCC2 [RNP0015]	–	greatest inhibitory activity; also recorded: good inhibitory properties	–	46 µM
O=C(Nc1ccc(F)cc1)c1c(NC(=O)C(F)(F)F)sc2c1CCCC2 [RNP0014]	strongest stabilizers of mRNA	weak effects; also recorded: weak or no inhibitory activity	–	138 µM
O=C(Nc1cccc(Cl)c1)c1c(NC(=O)C(F)(F)F)sc2c1CCCCC2 [RNP0007]	–	weakly inhibited	–	98 µM
O=C(Nc1ccc(F)cc1)c1c(NC(=O)C(F)(F)F)sc2c1CCCCC2 [RNP0009]	weakest inhibitors	only inhibited the ptRNA processing function	–	79 µM

Source: publication PMC8066339, “Optimization of 2-Acylaminocycloalkylthiophene Derivatives for Activity against Staphylococcus aureus RnpA” (Antibiotics, 2021)
